# Measurements reported in patent publication US11078256B2, “Methods and compositions for inhibiting cancer cell growth” (THE BOARD OF REGENTS OF THE UNIVERSITY OF TEXAS SYSTEM, priority 2018, dated 2021).
# Read-outs that look alike come from different tables or passages of the source. No end group written: not given here.
# How the values were obtained:
# Assay type in all cases: cell-based, Human
# [1] = test system: HCC38 breast cancer cell line (triple negative); experiment: Cell growth: total and live cell count, trypan blue exclusion viability, 48 hours after seeding with p1978; set-up: key to Total growth rate, Treated / Live growth rate, Treated: N.G. = Negative Growth
# Procedure: (§1) Experimental design: The experimental design (see FIG. 1) was to seed the HCC38 breast cancer cell line (BCCL) with the p1978 pep-tide in order to determine the effects of the peptide on cell growth. The HCC38 cell line was chosen because of its triple negative receptor status. […] They are more likely to recur than other subtypes of breast cancer.
# (§2) The 184B5 (normal breast tissue cells) were seeded to serve as a negative control while the AU565 BCCL, a cell line with a positive Her2/neu and p53 receptor status, was inoculated to serve as a positive control. In the initial phase, treatment cell lines were treated with 8.26 μg/ml of p1978. The con-centration corresponds closely to the average SMR3B (the parent protein of the p1978 peptide), concentration, plus one standard deviation found in healthy breast tissues. A second experiment was performed doubling the concentration of 1978 to 16.52 μg/ml. FIG. 1 represents a schematic of the design used for the study.
# (§3) Corresponding unseeded cell lines served as controls. The controls were treated with a placebo containing 1.0 ml of sterile PBS (for cell culture). An expanded dose-response experiment was not performed due to limited resources. The experiment ended 48 hours after seeding. The outcome variables of this study were total cell count, live cell count and percent viability.
# (§4) Cell lines: Human breast cell lines HCC38 (HCC38 BL (ATCC® CRL-2346™), AU565 (ATCC® CRL2351™) and 184B5 (ATCC® CRL-8799™) were purchased from the American Type Culture Collection. Cell line descriptions are summarized in Table 1.
# (§5) Cell growth procedures: The aforementioned cell lines were thawed in a 37.0 water bath with gentle agitation. The vials were decontaminated and the cells were added drop wise to 9 ml of their prospective culture media while gently mixing. The cell suspension was centrifuged at 1,000 rpm for five minutes. The supernatant was carefully removed and the cell pellet was resuspended in 5.0 ml of media. Each cell line was checked for viability using a hemocytometer and a cell count/ml was calculated. Nine plates were seeded of each cell line at a total of 1.0×10^6 cells/100 mm plates. Once the plates reached 30% confluency, nine plates of each cell line were treated with 8.26 μg/ml (4.95 μM) of p1978 peptide and a set of nine control plates were treated with 1.0 ml of phosphate buffered saline (PBS). They were incubated and harvested by trypsinization in 48 hours. The cells from each plate were counted for the total number of cells and were assessed for viability using the trypan blue exclusion test of cell viability. The same procedures were repeated for the higher 16.52 ug/ml (9.88 uM) dose.
# (§6) Statistics: Data was tabulated using SPSS statistical software. The outcome variables of this study were total cell count, live cell count and percent viability. To assess these variables, descriptive statistics were employed to compare p1978 treated cells relative to the control cells. The approach consisted mainly of bar charts, mean cell counts and mean percentages. The cellular growth rate was determined by subtracting the resultant or final cell count from its baseline value. The difference was divided by 48 hours the growing time for the cells. The results were expressed in cells/hour.
# (§7) A homoscedastic univariate t-test was computed for differences between the treated and the control groups. The arithmetic mean value of the control group was used as the “cut-point” value. The alpha level was p<0.05.
# [2] = test system: 184B5 cell line (normal breast tissue cells); experiment: in vitro
# Procedure: as §1, §2, §3, §4, §5, §6, §7
# in vitro = conditions: human
# Procedure: as §1, §2, §3, §4, §5, §6, §7
# [3] = test system: AU565 breast cancer cell line (Her2/neu and p53 positive)
# Procedure: as §1, §2, §3, §4, §5, §6, §7
# [4] = HCC38, 8.26 μg/ml p1978, over 48 hours
# [5] = HCC38, 16.52 μg/ml p1978, 48 hours
# [6] = HCC38, 16.52 μg/ml p1978, over 48 hours
# [7] = 184B5, 8.26 ug/ml p1978, 48 hours
# [8] = 184B5, 8.26 μg/ml p1978, over 48 hours
# [9] = 184B5, 16.52 ug/ml p1978, 48 hours
# [10] = 184B5, 16.52 μg/ml p1978, 48 hours
# [11] = 184B5, 16.52 μg/ml p1978, over 48 hours
# [12] = AU565, 8.26 ug/ml p1978, 48 hours
# [13] = AU565, 8.26 μg/ml p1978, over 48 hours
# [14] = AU565, 16.52 μg/ml p1978, 48 hours
# [15] = AU565, 16.52 μg/ml p1978, 48 hours, footnote: * represents 10^5
# [16] = AU565, 16.52 μg/ml p1978, over 48 hours
sequence,measurement,setting,value
"PRGPYPPGPLAPPQ [p1978, PRGPYPPGPLAPPQ]",reduction of total cell count versus control,"[1]; HCC38, 8.26 ug/ml p1978, 48 hours",20.8%
same,reduction of living cell count versus control,"[1]; HCC38, 8.26 ug/ml p1978, 48 hours, t=−3.25, p 0.08",33.2%
same,"Live growth rate, Treated",[1]; [4],N.G.
same,"Total growth rate, Treated",[1]; [4],N.G.
same,"growth rate difference, treated versus control","[1]; HCC38, 16.52 ug/ml p1978",−38%
same,average total number of cells higher in control than in treated (knockdown effect),"[1]; HCC38, 16.52 ug/ml p1978, 48 hours",22.4%
same,"% Live, Treated",[1]; [5],92%
same,"Live × 10^6 (mean cell count with standard deviation), Treated",[1]; [5],1.87 (±0.43) × 10^6
same,"Live × 10^6, Treated - Baseline",[1]; [5],1.10 × 10^6
same,"Live × 10^6, Treated - Control",[1]; [5],−0.67 × 10^6
same,"Total × 10^6 (mean cell count with standard deviation), Treated",[1]; [5],2.03 (±0.62) × 10^6
same,"Total × 10^6, Treated - Baseline",[1]; [5],1.03 × 10^6
same,"Total × 10^6, Treated - Control",[1]; [5],−0.61 × 10^6
same,decrease in the number of living cells as compared to the control,"[1]; HCC38, 16.52 ug/ml p1978, 48 hours, t=−3.08, p<0.05",37.9%
same,"Live growth rate, Treated",[1]; [6],2.29 10^4 cells/hour
same,"Total growth rate, Treated",[1]; [6],2.16 10^4 cells/hour
same,difference in growth rate between the treated and the controls,"[2]; 184B5, 8.26 ug/ml p1978",almost negligible difference
same,higher living cell count for the treated cells as compared to the control,[2]; [7],3.5%
same,higher total cell count for the treated cells as compared to the control,[2]; [7],7.5%
same,"Live growth rate, Treated",[2]; [8],0.59 10^4 cells/hour
same,"Total growth rate, Treated",[2]; [8],1.11 10^4 cells/hour
same,effect on cell viability or growth rate,"[2]; 184B5, 16.52 ug/ml p1978",no effect
same,increase in the living cell count for the treated cells as compared to the control,[2]; [9],63.7%
same,increase in the total cell count for the treated cells as compared to the control,[2]; [9],22.4%
same,"% Live, Treated",[2]; [10],98%
same,"Live × 10^6 (mean cell count with standard deviation), Treated",[2]; [10],4.82 (±0.75) × 10^6
same,"Live × 10^6, Treated - Baseline",[2]; [10],2.57 × 10^6
same,"Live × 10^6, Treated - Control",[2]; [10],1.00 × 10^6
same,"Total × 10^6 (mean cell count with standard deviation), Treated",[2]; [10],4.91 (±0.63) × 10^6
same,"Total × 10^6, Treated - Baseline",[2]; [10],2.62 × 10^6
same,"Total × 10^6, Treated - Control",[2]; [10],0.90 × 10^6
same,"Live growth rate, Treated",[2]; [11],2.77 10^4 cells/hour
same,"Total growth rate, Treated",[2]; [11],7.83 10^4 cells/hour
same,"viability at 48 hours, 8.26 μg/ml",in vitro,91%
same,"viability at 48 hours, 16.52 μg/ml",in vitro,95 to 98%
same,live cell count higher than control group,[3]; [12],11.7%
same,total cell count higher than control group,[3]; [12],31.5%
same,"Live growth rate, Treated",[3]; [13],0.77 10^4 cells/hour
same,"Total growth rate, Treated",[3]; [13],1.38 10^4 cells/hour
same,knockdown effect on cell count,"[3]; AU565, 16.52 ug/ml p1978",No knockdown effect
same,increase in living cell count,"[3]; AU565, 16.52 ug/ml p1978, 48 hours",23.1%
same,"% Live, Treated",[3]; [14],75%
same,"Live × 10^6 (mean cell count with standard deviation), Treated",[3]; [14],1.60 (±0.42) × 10^6
same,"Live × 10^6, Treated - Control",[3]; [14],0.30 × 10^6
same,"Total × 10^6 (mean cell count with standard deviation), Treated",[3]; [14],2.14 (±0.50) × 10^6
same,"Total × 10^6, Treated - Control",[3]; [14],0.27 × 10^6
same,"Live, Treated - Baseline",[3]; [15],0.24* 10^5
same,"Total, Treated - Baseline",[3]; [15],0.24* 10^5
same,"Live growth rate, Treated",[3]; [16],0.50 10^4 cells/hour
same,"Total growth rate, Treated",[3]; [16],0.50 10^4 cells/hour
same,"percent viability, treated","[3]; human, 48 hours, 8.26 ug/ml",61%
